Laboratory results published in patent US20130203830A1, “Compounds for Prevention of Cell Injury” (SULFATEQ B.V., priority 2010, published 2013).
“Also recorded” adds a separate entry of the source.

Assays:
[1] = system: SMAC cells; test: Survival of SMAC cells after hypothermia (MTS assay / cell counting); type: cell-based, rat; conditions: SMAC cells, 24 h at 3° C., substance added 15 min before hypothermia
Procedure: Cell lines used included NRK (normal rat kidney cells), DDT-1 (hamster ductus deferens muscle cells) and A7R5 (rat vascular smooth muscle cells) cultured in DMEM (Gibco, 41966, UK) and SMAC (rat smooth muscle aortic cells) and THMC (transformed human mesangial cell) cultured in DMEM/F12 (Gibco, E12-719F). All media were supplied with 10% (vol/vol) fetal calf serum and 1% penicillin-streptomycin and cultured at 37° C. in 5% CO2 in 25 cm^2 or 75 cm^2 flasks. For hypothermia experiments, cells were plated in 6 or 96 wells plates and grown to confluence. Thereupon, cells were placed at 3° C. for up to 24 hours. Cell survival was measured by counting of trypan blue stained cells or MTS assay, which measures the number of viable cells. For the latter, 20 μl of MTS solution was added to each well and cells were subsequently placed in the incubator at 37° C. in 5% CO2 for 3 hr before assessing the cell survival by measuring absorption using a microplate reader at 490 nm.
MTS assay was performed to investigate cell survival after blocking serotonin transporter and hypothermic treatment.

[2] = system: SMAC cells; test: Caspase 3/7 assay in hypothermic SMAC cells; type: cell-based, rat; conditions: serotonin 5 nmol/L
[3] = system: SMAC cells; test: H2S content of SMAC cell homogenates (methylene blue method); type: cell-based, rat; conditions: hypothermic SMAC cells 24 h, 3° C., pretreatment 15 min, 1.3 μM
Procedure: Methylene blue method for H2S detection was applied to quantitatively measure the H2S production. Cells were washed with PBS, scraped and centrifuged for 60 sec at 1000 rpm. After removal of the supernatant, zinc acetate 1% in water (200 μl) was added to the cell sediments and the cells were disrupted by small glass beads and vortexed for 20 seconds. Diamine-ferric solution was prepared by mixing 100 μl of a 400 mg N,N-dimethyl-p-phenylenediamine dihydrochloride dissolved in 10 ml 6M HCl and 100 μl of 600 mg ferric chloride in 10 ml 6M HCl. Two hundred μl of this mixture was added to the cell suspension and after an incubation time of 30 min at 37° C. and centrifugation, the amount of methylene blue formed in the supernatant was measured at a wavelength of 670 nm. To measure H2S content of supernatant, the same procedure was repeated for the cell free medium of cells incubated at both 37° C. and 3° C. Blanks were made following the same procedure without cells or using fresh medium. The concentration of H2S was calculated by extrapolation using a standard curve obtained from different concentrations of Methylene blue and spectrophotometric measurement at a wavelength of 670 nm. The amount of H2S present was calculated on the basis that every mole of methylene blue formed in this reaction contains 32 g (1 mole) of captured sulfur.

[4] = system: Cystathionine-β-synthase (CBS); test: CBS expression in SMAC cells (western blot); type: cell-based, rat; conditions: serotonin 1.3 μM
Procedure: To investigate the potential of serotonin in upregulating CBS expression in cells, SMAC cells were cultured in a 6 well plate one day before serotonin treatment. After reaching confluence, cells were incubated with 1.3 μM serotonin in SMAC cell complete medium. Control wells only contained the medium. At every time point (5, 10, min), cells were washed with PBS, lysed using RIPA buffer and western blotted to study the change in CBS expression level.
To investigate the role of Cystathione beta-synthase activity in the protective effect of serotonin the expression of CBS was reduced by applying a predesigned siRNA (sc-60336, Santa Cruz, USA) and compared to a silencer negative control (Ambion, AM4644, Huntingdon, UK). DDT-1 and SMAC cells at 60-80% confluence were seeded in 96 or 6 well plates in antibiotic-free normal growth medium supplemented with FCS. […] The protein concentration was measured by Bradford assay in all the samples. […] Proteins were transferred to a nitrocellulose membrane and detected by West Pico Chemiluminescent Substrate (supersignal), photographed and analyzed with genetool software (version 3.08, SynGene, England). […]

[5] = system: CBS enzyme isolated from DDT-1 cells; test: Activity of isolated CBS enzyme (H2S production); type: biochemical, hamster; conditions: both at 37° C. and 3° C.
Procedure: To examine the potential of serotonin to act as a cofactor or allosteric activator of CBS, the enzyme was isolated from DDT-1 cells. In brief, DDT-1 cells were lyzed by a non-denaturing buffer. CBS antibody (1 μg/ml) was diluted in coating solution and 100 μl of it was added to each well of a microplate. The plates were left at 4° C. over night. The wells were washed with PBS three times for 2 min and 10 μg/ml of the protein was added to each well and the microplate was left at 4° C. for another 24 hr and later washed three times with PBS. The substrates cysteine and homocysteine at the concentration of 10 μmol each were mixed and 100 μl was added to each well in the absence or presence of PLP (pyridoxal-5-phosphate) or serotonin (30 nmol) in PBS.

## NCCc1c[nH]c2ccc(O)cc12 [serotonin, Serotonin]
[1]
  protection against hypothermic cell death / reduction in number of cells: concentration-dependently prevented; also recorded: Protection of hypothermic cell death
[2]
  apoptosis (caspase 3/7) in hypothermic SMAC cells: completely and dose dependently attenuated
[3]
  H2S content: 1.4±0.2 μmoles per 10̂6 cells
[3]; vs untreated
  increase of H2S content: 8 fold
[4]; SMAC cells, 37° C., 15 min
  induction of CBS expression: 4 fold
[4]
  CBS expression in 37° C. SMAC cells: upregulates CBS expression
[5]
  activity of isolated CBS: increase the activity
